According to ChEMBL document CHEMBL1201862, “PubChem BioAssay data set” (2004):
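Protocol summary: plate cells (96-well), add compound at 5 concentrations, incubate 48 h, interpolate endpoints linearly. Here, GI50 denotes the concentration required for 50% inhibition of growth.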 Calls of active or inactive are those of the source. No stated cut-off is given here; in the data, active = GI50 up to about 1.1 µM and inactive = higher.

How the values were obtained:
Assay in all cases: DTP human tumour cell line panel, 48 h
[1] = system: A549
[2] = system: ACHN
[3] = system: CCRF-CEM
[4] = system: DU-145
[5] = system: EKVX
[6] = system: HCC 2998
[7] = system: HCT-116
[8] = system: HCT-15
[9] = system: HL-60
[10] = system: HOP-62
[11] = system: Hs-578T
[12] = system: K562
[13] = system: KM12
[14] = system: LOX IMVI
[15] = system: M14
[16] = system: MOLT-4
[17] = system: NCI-H226
[18] = system: NCI-H23
[19] = system: NCI-H522
[20] = system: NCI/ADR-RES
[21] = system: OVCAR-3
[22] = system: OVCAR-8
[23] = system: PC-3
[24] = system: RXF 393
[25] = system: SF-268
[26] = system: SF-295
[27] = system: SF-539
[28] = system: SK-MEL-5
[29] = system: SN12C
[30] = system: SNB-19
[31] = system: SNB-75
[32] = system: T47D
[33] = system: U-251
[34] = system: UACC-257
[35] = system: UACC-62
[36] = system: UO-31
[37] = system: 786-0
[38] = system: A498
[39] = system: COLO 205
[40] = system: HOP-92
[41] = system: HT-29
[42] = system: IGROV-1
[43] = system: MCF7
[44] = system: MDA-MB-231
[45] = system: MDA-MB-435
[46] = system: Malme-3M
[47] = system: NCI-H460
[48] = system: OVCAR-4
[49] = system: OVCAR-5
[50] = system: RPMI-8226
[51] = system: SK-MEL-28
[52] = system: SK-OV-3
[53] = system: SR
[54] = system: SW-620
[55] = system: TK-10

## Oc1c(C(O)c2ccccn2)ccc2ccccc12 (configuration not stated)
[1]
  GI50: 61.7 µM (inactive)
[2]
  GI50: 66.4 µM (inactive)
[3]
  GI50: 17.9 µM (inactive)
[4]
  GI50: > 100 µM (inactive)
[5]
  GI50: 53.1 µM (inactive)
[6]
  GI50: 17.1 µM (inactive)
[7]
  GI50: 32.2 µM (inactive)
[8]
  GI50: 22.1 µM
[9]
  GI50: 15.1 µM (inactive)
[10]
  GI50: 81.3 µM (inactive)
[11]
  GI50: 35.1 µM (inactive)
[12]
  GI50: 26.4 µM (inactive)
[13]
  GI50: 54.1 µM (inactive)
[14]
  GI50: > 100 µM (inactive)
[15]
  GI50: > 100 µM (inactive)
[16]
  GI50: 19.6 µM (inactive)
[17]
  GI50: 85.3 µM (inactive)
[18]
  GI50: 69.8 µM (inactive)
[19]
  GI50: 17.4 µM (inactive)
[20]
  GI50: 42.1 µM (inactive)
[21]
  GI50: 56.8 µM (inactive)
[22]
  GI50: 74.6 µM (inactive)
[23]
  GI50: 26.9 µM (inactive)
[24]
  GI50: 32.9 µM (inactive)
[25]
  GI50: 72.4 µM (inactive)
[26]
  GI50: > 100 µM (inactive)
[27]
  GI50: 87.3 µM (inactive)
[28]
  GI50: 22.7 µM (inactive)
[29]
  GI50: 48.1 µM (inactive)
[30]
  GI50: > 100 µM (inactive)
[31]
  GI50: 24.4 µM (inactive)
[32]
  GI50: > 100 µM (inactive)
[33]
  GI50: 52 µM (inactive)
[34]
  GI50: > 100 µM (inactive)
[35]
  GI50: 14.4 µM (inactive)
[36]
  GI50: 29.6 µM (inactive)

## N=C(N)N1CCC(N2CCOCC2)CC1
[37]
  GI50: > 100 µM (inactive)
[38]
  GI50: > 100 µM (inactive)
[1]
  GI50: > 100 µM (inactive)
[2]
  GI50: > 100 µM (inactive)
[3]
  GI50: > 100 µM (inactive)
[39]
  GI50: > 100 µM (inactive)
[4]
  GI50: > 100 µM (inactive)
[5]
  GI50: > 100 µM (inactive)
[6]
  GI50: > 100 µM (inactive)
[7]
  GI50: > 100 µM (inactive)
[8]
  GI50: > 100 µM
[9]
  GI50: > 100 µM (inactive)
[10]
  GI50: > 100 µM (inactive)
[40]
  GI50: > 100 µM (inactive)
[41]
  GI50: > 100 µM (inactive)
[11]
  GI50: > 100 µM (inactive)
[42]
  GI50: > 100 µM (inactive)
[12]
  GI50: > 100 µM (inactive)
[13]
  GI50: > 100 µM (inactive)
[15]
  GI50: > 100 µM (inactive)
[43]
  GI50: > 100 µM (inactive)
[44]
  GI50: > 100 µM (inactive)
[45]
  GI50: > 100 µM (inactive)
[16]
  GI50: > 100 µM (inactive)
[46]
  GI50: > 100 µM (inactive)
[17]
  GI50: > 100 µM (inactive)
[18]
  GI50: > 100 µM (inactive)
[47]
  GI50: > 100 µM (inactive)
[20]
  GI50: > 100 µM (inactive)
[48]
  GI50: > 100 µM (inactive)
[49]
  GI50: > 100 µM (inactive)
[22]
  GI50: > 100 µM (inactive)
[50]
  GI50: > 100 µM (inactive)
[24]
  GI50: > 100 µM (inactive)
[25]
  GI50: > 100 µM (inactive)
[26]
  GI50: > 100 µM (inactive)
[27]
  GI50: > 100 µM (inactive)
[51]
  GI50: > 100 µM (inactive)
[28]
  GI50: > 100 µM (inactive)
[52]
  GI50: > 100 µM (inactive)
[29]
  GI50: > 100 µM (inactive)
[30]
  GI50: > 100 µM (inactive)
[31]
  GI50: > 100 µM (inactive)
[53]
  GI50: > 100 µM (inactive)
[54]
  GI50: > 100 µM (inactive)
[32]
  GI50: > 100 µM (inactive)
[55]
  GI50: > 100 µM (inactive)
[33]
  GI50: > 100 µM (inactive)
[34]
  GI50: > 100 µM (inactive)
[35]
  GI50: > 100 µM (inactive)
[36]
  GI50: > 100 µM (inactive)
